We go through eight compounds from US4880809A, “1,4-disubstituted piperazines (or homopiperazines) as platelet-activating factor antagonists” (Takeda Chemical Industries, Ltd., priority 1987, dated 1989).

For orientation: inhibition means the relative decrease from the control value, in per cent. For orientation: inhibition in vivo means the percentage by which the read-out fell short of the control. High values mean a strong effect, low ones a weak effect.

Assay [1] concerns PAF-Induced Platelet Aggregation. The assay is described as follows: Inhibitory Action on PAF-Induced Platelet Aggregation. It counts as cell-based, New Zealand white male rabbits. As to conditions: Oryctolagus cuniculus, Drug Concentration: 3 × 10^-5 M, rabbit PRP.
Description: Blood was collected from the hearts of conscious New Zealand white male rabbits weighing 2 to 3 kg using citric acid as an anticoagulant (one volume part of 3.15% citric acid per 9 volume parts of the whole blood). The blood was subjected to a centrifuge at 800 rpm for ten minutes to obtain platelet rich plasma (PRP). The remaining blood after collecting the PRP was subjected to a centrifuge at 3000 rpm for ten minutes to obtain platelet poor plasma (PPP). PRP was diluted with PPP, and the number of platelets was adjusted to 500,000/μl. Platelet aggregation was examined by means of turbidimetry [Born, Nature, 194, 927-929 (1962)] with 8 channel aggregometer (NBS HEMA TRACER 6 Nikoh, Bioscience, Japan). More concretely, PRP (250 μl) was kept warm (37° C.) for three minutes in a silicon-processed cuvette, to which was added a test sample (25 μl) dissolved in a physiological saline or in 10mM dimethylsulfoxide followed by dilution with a physiological saline. Two minutes later, PAF (25 μl, 3×10^-9 -1×10^-8 M), dissolved in a physiological saline, was added and then the maximum aggregation rate was determined. As the control, physiological saline without test sample was added to the cuvette, and the inhibitory rate thereon was determined.
In assay [2] the test system is PAF-Induced Hypotension. The assay is described as follows: Inhibitory Action on PAF-Induced Hypotension. As to conditions: po, 30 mg/kg p.o., rat. It counts as in vivo, SD (Jcl) male rats. The method, then:
SD (Jcl) male rats of 6 to 8 week old were subjected to the experiment. After fasting overnight, the rats were cannulated into the femoral artery and vein under anesthesia with pentobarbital. A transducer (MPU-0.5-290O-III, TOYO BALDWIN, Japan) was connected with the artery cannula, and blood pressure was continuously measured. […] The rate of inhibition of lowering of blood pressure after administration of the test samples against the control was evaluated.

Structures can show the parent of a compound that is named as a salt.

Turning to `COc1cc2c(cc1OC)CCC(C(=O)N1CCN(C(=O)c3cc(OC)c(OC)c(OC)c3)CC1)=C2` [Example 56, 1-(6,7-dimethoxy-1,2-dihydro-3-naphthoyl)-4-(3,4,5-trimethoxybenzoyl)piperazine], the inhibition at 30 µM in assay [1] is 100%. Moreover, the values for the inhibition in vivo at 30 mg/kg in assay [2] (after 1 hr), in assay [2] (after 2 hrs) and in assay [2] (after 4 hrs) were 100%, 97% and 88%, respectively.

`CCOc1cc2c(cc1OCC)CCC(C(=O)N1CCN(Cc3cc(OC)c(OC)c(OC)c3)CC1)=C2` [Example 58, 1-(6,7-diethoxy-1,2-dihydro-3-naphthoyl)-4-(3,4,5-trimethoxybenzyl)piperazine hydrochloride] registered an inhibition at 30 µM in assay [1] of 100%. In addition, the inhibition in vivo at 30 mg/kg in assay [2] (after 1 hr) was 88%; in assay [2] (after 2 hrs), 95%; in assay [2] (after 4 hrs), 65%.

As for `CCCOc1cc2c(cc1OCCC)CCC(C(=O)N1CCN(Cc3cc(OC)c(OC)c(OC)c3)CC1)=C2` [Example 60, 1-(6,7-dipropoxy-1,2-dihydro-3-naphthoyl)-4-(3,4,5-trimethoxybenzyl)-piperazine hydrochloride], in assay [1], the inhibition at 30 µM stood at 100%. The inhibition in vivo at 30 mg/kg in assay [2] (after 1 hr) was 79%; in assay [2] (after 2 hrs) it was 69%; in assay [2] (after 4 hrs), 60%.

The compound `CCOc1cc2c(cc1OCC)CCC(C(=O)N1CCN(C(=O)c3cc(OC)c(OC)c(OC)c3)CC1)=C2` [Example 65, 1-(6,7-diethoxy-1,2-dihydro-3-naphthoyl)-4-(3,4,5-trimethoxybenzoyl)piperazine] yielded an inhibition at 30 µM in assay [1] of 100%. Also, the inhibition in vivo at 30 mg/kg in assay [2] (after 1 hr) is 100%; in assay [2] (after 2 hrs), 100%; in assay [2] (after 4 hrs), 77%.

For the compound `CCCOc1cc2c(cc1OCCC)CCC(C(=O)N1CCN(C(=O)c3cc(OC)c(OC)c(OC)c3)CC1)=C2` [Example 66, 1-(6,7-dipropoxy-1,2-dihydro-3-naphthoyl)-4-(3,4,5-trimethoxybenzoyl)piperazine], the inhibition at 30 µM in assay [1] was determined as 100%. The inhibition in vivo at 30 mg/kg worked out at 77% in assay [2] (after 1 hr), 79% in assay [2] (after 2 hrs) and 68% in assay [2] (after 4 hrs).

Compound `CCOc1cc2c(cc1OCC)CCCC(C(=O)N1CCN(Cc3cc(OC)c(OC)c(OC)c3)CC1)=C2` [Example 72, 1-(2,3-diethoxy-6,7-dihydro-5H-benzocyclohepten-8-ylcarbonyl)-4-(3,4,5-trimethoxybenzyl)piperazine hydrochloride] returned an inhibition at 30 µM in assay [1] of 100%. Besides, the inhibition in vivo at 30 mg/kg in assay [2] (after 1 hr) turned out to be 98%; in assay [2] (after 2 hrs), 99%; in assay [2] (after 4 hrs), 75%.

In the case of `COc1cc2c(cc1OC)CCCCC(C(=O)N1CCN(Cc3cc(OC)c(OC)c(OC)c3)CC1)=C2` [Example 84, 1-(2,3-dimethoxy-5,6,7,8-tetrahydrobenzocycloocten-9-ylcarbonyl)-1-(3,4,5-trimethoxybenzyl)piperazine hydrochloride], the inhibition at 30 µM in assay [1] came out at 100%. For the same compound, the values for the inhibition in vivo at 30 mg/kg in assay [2] (after 1 hr), in assay [2] (after 2 hrs) and in assay [2] (after 4 hrs) were 100%, 100% and 73%, respectively.

In assay [1], `COc1cc2c(cc1OC)CCCCC(C(=O)N1CCN(C(=O)c3cc(OC)c(OC)c(OC)c3)CC1)=C2` [Example 85, 1-(2,3-dimethoxy-5,6,7,8-tetrahydrobenzocycloocten-9-ylcarbonyl)-4-(3,4,5-trimethoxybenzoyl)piperazine] came in with an inhibition at 30 µM of 100%. The inhibition in vivo at 30 mg/kg in assay [2] (after 1 hr), in assay [2] (after 2 hrs) and in assay [2] (after 4 hrs) was 100% throughout.
